# Publication PMC10017709, “Structural basis of selective cannabinoid CB2 receptor activation” (Nature Communications, 2023)
# Values joined by “and” are separate entries in the source; they are usually repeats but may differ in a detail not shown here. Equal values may be shown once.
# Experiments:
# CB1R QuadrupleTM1,7 = test: [35S]GTPγS assay, CB1R quadruple mutant; format: biochemical, human; settings: CB1R QuadrupleTM1,7; individual replicates
# CB2R-I110^3.29A = CB2R-I110^3.29A (Homo sapiens, UniProt P34972, I110A); test: [35S]GTPγS assay, CB2R I110A mutant; format: biochemical; settings: for [35S]GTPγS binding: I1103.29A, individual replicates
# CB2R-L185^ECL2H = CB2R-L185^ECL2H (Homo sapiens, UniProt P34972, L185H); test: [35S]GTPγS assay, CB2R L185H mutant; format: biochemical; settings: L185H mutant
# CB1R-L359^6.51V = CB1R-L359^6.51V (Homo sapiens, UniProt P21554, L359V); test: [3H]CP55,940 displacement assay, CB1R L359V mutant; format: binding; settings: CB1R L3596.51V; 10 µM ligand; replicates 1-3
# hCB2R = target: T1, hCB2R (Homo sapiens, UniProt P34972); test: [3H]RO6957022 competition association assay; format: binding; settings: for percentage specific [3H]RO6957022 binding (competition association): individual replicates
# T1 construct: host or cells: CHO-K1 (CHOK1_hCB2bgal, PathHunter), membranes
# CB1R-H270^ECL2L = CB1R-H270^ECL2L (Homo sapiens, UniProt P21554, H270L); test: [3H]CP55,940 displacement assay, CB1R H270L mutant; format: binding
# CB2R-S285^7.39A = CB2R-S285^7.39A (Homo sapiens, UniProt P34972, S285A); test: [35S]GTPγS assay, CB2R S285A mutant; format: biochemical; settings: S285A mutant
# CB2R WT = CB2R WT (Homo sapiens, UniProt P34972); test: [35S]GTPγS G protein activation assay, CB2R WT; format: biochemical; settings: for Emax (%): CB2R WT; for [35S]GTPγS binding, percentage of CP55,940: individual replicates
# CB1R I267ECL2L = CB1R I267ECL2L (Homo sapiens, UniProt P21554, I267L); test: [3H]CP55,940 displacement assay, CB1R I267L mutant; format: binding
# [1] = I110A mutant, HEK293T membranes
# Sequence of CB1R I267ECL2L (P21554 whole entry I267L): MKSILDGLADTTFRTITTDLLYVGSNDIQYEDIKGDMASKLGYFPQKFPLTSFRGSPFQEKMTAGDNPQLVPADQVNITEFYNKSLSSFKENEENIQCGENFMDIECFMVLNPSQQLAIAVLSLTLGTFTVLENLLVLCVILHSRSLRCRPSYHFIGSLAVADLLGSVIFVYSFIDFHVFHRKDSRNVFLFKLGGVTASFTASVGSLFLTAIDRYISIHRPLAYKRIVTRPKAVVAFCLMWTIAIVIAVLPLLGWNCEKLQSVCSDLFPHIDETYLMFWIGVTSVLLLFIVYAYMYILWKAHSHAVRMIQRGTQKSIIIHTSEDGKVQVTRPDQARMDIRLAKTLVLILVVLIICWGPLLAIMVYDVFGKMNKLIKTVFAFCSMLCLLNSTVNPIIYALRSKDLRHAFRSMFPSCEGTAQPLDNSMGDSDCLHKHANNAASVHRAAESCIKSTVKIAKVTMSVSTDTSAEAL
# Sequence of CB1R-H270^ECL2L (P21554 whole entry H270L): as the sequence (P21554 whole entry I267L) above, with L267I, H270L counted along it
# Sequence of CB2R-S285^7.39A (P34972 whole entry S285A): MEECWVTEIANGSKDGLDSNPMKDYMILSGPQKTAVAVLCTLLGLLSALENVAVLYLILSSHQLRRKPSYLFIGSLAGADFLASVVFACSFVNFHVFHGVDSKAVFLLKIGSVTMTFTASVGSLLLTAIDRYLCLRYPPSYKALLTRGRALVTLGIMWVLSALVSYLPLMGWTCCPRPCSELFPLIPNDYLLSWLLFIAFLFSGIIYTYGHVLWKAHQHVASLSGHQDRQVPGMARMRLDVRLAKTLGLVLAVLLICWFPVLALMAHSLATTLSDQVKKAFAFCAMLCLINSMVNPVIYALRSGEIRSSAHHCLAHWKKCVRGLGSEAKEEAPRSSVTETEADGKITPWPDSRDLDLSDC
# Sequence of CB1R-L359^6.51V (P21554 whole entry L359V): as the sequence (P21554 whole entry I267L) above, with L267I, L359V counted along it
# Sequence of CB2R-I110^3.29A (P34972 whole entry I110A): as the sequence (P34972 whole entry S285A) above, with I110A, A285S counted along it
# Sequence of CB2R WT (P34972 whole entry): as the sequence (P34972 whole entry S285A) above, with A285S counted along it
# T1 sequence (P34972 whole entry): as the sequence (P34972 whole entry S285A) above, with A285S counted along it
# Sequence of CB2R-L185^ECL2H (P34972 whole entry L185H): as the sequence (P34972 whole entry S285A) above, with L185H, A285S counted along it
structure (smiles),measurement,setting,value
"CC(C)CN1C(=O)CN(Cc2ccc(-c3ccc(F)c(CNC4CCOCC4)n3)cc2)C1=O [LEI-102, 1-(4-(5-fluoro-6-(((tetrahydro-2H-pyran-4-yl)amino)methyl)pyridin-2-yl)benzyl)-3-isobutylimidazolidine-2,4-dione]","G protein activation, fold over its basal","CB1R QuadrupleTM1,7",1.167 fold over its basal and 1.343 fold over its basal and 1.151 fold over its basal
same,EC50,CB2R-I110^3.29A; [1],100 nM
same,pEC50,CB2R-I110^3.29A; [1],no significant effect
same,Emax (%),"CB2R-I110^3.29A; I110A mutant, at 10 µM compared to WT",36 ± 13%
same,[35S]GTPγS binding,CB2R-I110^3.29A; log [ligand] (M) -5,61.30 percentage of WT and 18.20 percentage of WT and 29.13 percentage of WT
same,[35S]GTPγS binding,CB2R-I110^3.29A; log [ligand] (M) -6,35.42 percentage of WT and 6.50 percentage of WT and 8.34 percentage of WT
same,[35S]GTPγS binding,CB2R-I110^3.29A; log [ligand] (M) -7,35.70 percentage of WT and -4.40 percentage of WT and 26.26 percentage of WT
same,[35S]GTPγS binding,CB2R-I110^3.29A; log [ligand] (M) -8,11.80 percentage of WT and -18.30 percentage of WT and 10.49 percentage of WT
same,[35S]GTPγS binding,CB2R-I110^3.29A; log [ligand] (M) -9,-6.30 percentage of WT and 0.70 percentage of WT and 0.20 percentage of WT
same,[35S]GTPγS binding,CB2R-I110^3.29A; log [ligand] (M) -10,15.50 percentage of WT and -9.30 percentage of WT and 14.53 percentage of WT
same,EC50,CB2R-L185^ECL2H; HEK293T membranes,126 nM
same,Emax (%),CB2R-L185^ECL2H; at 10 µM compared to WT,217 ± 21%
same,"percentage specific [3H]CP55,940 binding",CB1R-L359^6.51V,87.28 percentage and 69.23 percentage and 69.34 percentage
same,Kd,"hCB2R; KD = koff/kon, read-out: Kinetic KD",16.5 nM
same,residence time,hCB2R; RT = 1/(60 ∙ koff),16 min
same,percentage specific [3H]RO6957022 binding (competition association),hCB2R; Time 1 min,5.83% and -3.44% and 7.40%
same,percentage specific [3H]RO6957022 binding (competition association),hCB2R; Time 3 min,23.25% and 21.50% and 9.87%
same,percentage specific [3H]RO6957022 binding (competition association),hCB2R; Time 5 min,29.56% and 33.35% and 22.10%
same,percentage specific [3H]RO6957022 binding (competition association),hCB2R; Time 7 min,39.12% and 26.72% and 31.06%
same,percentage specific [3H]RO6957022 binding (competition association),hCB2R; Time 10 min,41.53% and 33.11% and 35.03%
same,percentage specific [3H]RO6957022 binding (competition association),hCB2R; Time 20 min,47.20% and 49.02% and 32.99%
same,percentage specific [3H]RO6957022 binding (competition association),hCB2R; Time 30 min,52.67% and 57.37% and 51.93%
same,percentage specific [3H]RO6957022 binding (competition association),hCB2R; Time 45 min,51.61% and 58.35% and 49.36%
same,percentage specific [3H]RO6957022 binding (competition association),hCB2R; Time 60 min,51.74% and 74.63% and 45.92%
same,percentage specific [3H]RO6957022 binding (competition association),hCB2R; Time 90 min,53.57% and 66.52% and 52.04%
same,percentage specific [3H]RO6957022 binding (competition association),hCB2R; Time 120 min,61.01% and 70.76% and 73.93%
same,ET (engagement time),"hCB2R; at 1 µM agonist, ET = 1/(kon ∙ 1 × 10-6)",16.0 ± 2.82 s
same,"percentage specific [3H]CP55,940 binding","CB1R-H270^ECL2L; CB1R H270ECL2L, 10 µM ligand, replicates 1-3",43.52 percentage and 52.40 percentage and 62.26 percentage
same,"Displacement (%) of [3H]CP55,940","CB1R-H270^ECL2L; CB1R H270L, 10 µM compound",47 ± 5%
same,EC50,CB2R-S285^7.39A; HEK293T membranes,501 nM
same,pEC50,CB2R-S285^7.39A; HEK293T membranes,no significant effect
same,Emax (%),CB2R-S285^7.39A; at 10 µM compared to WT,45 ± 8%
same,Emax (%),CB2R WT; maximum effect at 10 µM compared to WT (Suppl. Table 6),103 ± 3%
same,Emax (%),"CB2R WT; maximum effect compared to CP55,940",76 ± 1%
same,EC50,"CB2R WT; [35S]GTPγS, HEK293T membranes transiently expressing CB2R WT",126 nM
same,"[35S]GTPγS binding, percentage of CP55,940",CB2R WT; log [agonist] (M) -5,76.96% and 72.92% and 77.27%
same,"[35S]GTPγS binding, percentage of CP55,940",CB2R WT; log [agonist] (M) -6,47.32% and 54.96% and 57.48%
same,"[35S]GTPγS binding, percentage of CP55,940",CB2R WT; log [agonist] (M) -7,8.09% and 19.22% and 13.61%
same,"[35S]GTPγS binding, percentage of CP55,940",CB2R WT; log [agonist] (M) -8,7.23% and 9.98% and 7.81%
same,"[35S]GTPγS binding, percentage of CP55,940",CB2R WT; log [agonist] (M) -9,-12.88% and -8.32% and -11.10%
same,"[35S]GTPγS binding, percentage of CP55,940",CB2R WT; log [agonist] (M) -10,-4.61% and 18.64% and -19.45%
same,"percentage specific [3H]CP55,940 binding","CB1R I267ECL2L; CB1R I267ECL2L, 10 µM ligand, replicates 1-3",70.66 percentage and 79.50 percentage and 75.81 percentage
same,"Displacement (%) of [3H]CP55,940","CB1R I267ECL2L; CB1R I267L, 10 µM compound",25 ± 3%
